Experimental findings from ChEMBL document CHEMBL1201862, “PubChem BioAssay data set” (2004) are described below.

Test systems include IGROV-1; T47D; SK-MEL-2; PC-3; SR; M14; K562; SF-268; HCT-116; SW-620; HOP-92; SN12C; SK-OV-3; UACC-257; NCI-H522; A498; BT-549.
Holding throughout (experiment): DTP human tumour cell line panel, 48 h

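Cultured in 96-well plates, cells were exposed to test compound for 48 hours across five concentrations. The concentration for 50% growth inhibition is given as GI50.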 Activity calls are given as the source filed them. Rule as the data show it: active = GI50 up to about 1.1 µM and inactive = higher.

`O=C(O)c1nn(-c2ccccc2)nc1-c1nn(-c2ccccc2)nc1C(=O)O`: the GI50 in the assay on IGROV-1, in the assay on T47D, in the assay on SK-MEL-2, in the assay on PC-3, in the assay with SR and in the assay on M14 was > 100 µM (inactive) each time. Moreover, the GI50 in the assay with K562, with SF-268, in the assay with HCT-116, in the assay on SW-620, in the assay on HOP-92 and in the assay with SN12C was > 100 µM (inactive) throughout. The GI50 with SK-OV-3 and in the assay on UACC-257 was > 100 µM (inactive) in each case.
On to `COc1ccc(C(c2cc(OC)c(OC)c(OC)c2)N2C(=O)CCC2C(=O)O)cc1` (stereo not drawn), for which the GI50 – broadly, the concentration at which growth is held to half of that of the control – in the assay on IGROV-1 was 84.5 µM (inactive); in the assay on T47D, 47.2 µM (inactive); in the assay with SK-MEL-2 it was 46.8 µM (inactive); in the assay with PC-3, 46 µM (inactive); in the assay on SR it was 49.7 µM (inactive); in the assay on M14 it was 38.3 µM (inactive). Also, the GI50 with NCI-H522 was 52.1 µM (inactive); in the assay on K562, 43.8 µM (inactive); in the assay on SF-268 it was > 100 µM (inactive); in the assay with HCT-116, 35.5 µM (inactive); in the assay on SW-620 it was 50.1 µM (inactive); in the assay on HOP-92, > 100 µM (inactive). In addition, the GI50 in the assay on SN12C is > 100 µM (inactive); with SK-OV-3 it was 60.1 µM (inactive); with UACC-257, > 100 µM (inactive); in the assay on A498, 77.1 µM (inactive).
In the case of `Brc1sc(Br)c2c1[C@H](Br)C[C@@H]2Br`, the GI50 in the assay on IGROV-1 was 26.9 µM (inactive); with T47D, 26.1 µM (inactive); in the assay on SK-MEL-2, 24.6 µM (inactive); in the assay with SR it was 22.4 µM (inactive); with M14, 29.2 µM (inactive); in the assay on NCI-H522 it was 16.3 µM (inactive). The GI50 in the assay on K562 is 39.4 µM (inactive); in the assay on BT-549 it was 29 µM (inactive); in the assay on SF-268 it was 20.7 µM (inactive); in the assay on HCT-116 it was 37.2 µM (inactive); in the assay with SW-620, 38.7 µM (inactive); with HOP-92, 21.5 µM (inactive). The GI50 in the assay on SN12C was 31.1 µM (inactive); in the assay with SK-OV-3, 59.8 µM (inactive); with UACC-257, 40.2 µM (inactive); with A498, 40.3 µM (inactive).
Regarding `CCC(=O)ONC(=O)Cn1ccc([N+](=O)[O-])n1`, the GI50 with IGROV-1, in the assay on PC-3, with SR, in the assay on M14, in the assay with NCI-H522 and in the assay on K562 was > 100 µM (inactive) throughout. Also, the GI50 in the assay with SF-268, in the assay on HCT-116, in the assay with SW-620, with HOP-92, in the assay on SN12C and in the assay on SK-OV-3 was > 100 µM (inactive) each time. In the assay with UACC-257, the GI50 is > 100 µM (inactive).
Regarding `NC(=O)CC(/N=C1\C(=O)OC(C(O)CO)\C1=N/C(CC(N)=O)C(=O)O)C(=O)O` (stereo not drawn), the GI50 in the assay on IGROV-1, in the assay with T47D, in the assay with SK-MEL-2, in the assay with PC-3, with SR and with M14 was > 100 µM (inactive) each time. In addition, the GI50 in the assay on NCI-H522, in the assay on K562, in the assay on SF-268, in the assay with HCT-116, in the assay on SW-620 and in the assay on HOP-92 was > 100 µM (inactive) each time. For the same compound, the GI50 in the assay with SN12C, in the assay with SK-OV-3, in the assay on UACC-257 and in the assay with A498 was > 100 µM (inactive) in each case.
With `CC1CN=C(N(C(=O)Nc2ccc(Cl)c(Cl)c2)c2ccccc2)S1` (stereo not drawn), the GI50 was > 100 µM (inactive) in the assay on IGROV-1; 20.2 µM (inactive) with T47D; 23 µM (inactive) in the assay with SK-MEL-2; 37.8 µM (inactive) with PC-3; 35.3 µM (inactive) with M14; > 10 µM (inactive) with K562. Moreover, the GI50 in the assay on SF-268 was 69.2 µM (inactive); in the assay on HCT-116, 42.6 µM (inactive); in the assay with SW-620, 72.1 µM (inactive); with HOP-92, 38.9 µM (inactive); with SN12C, 33.6 µM (inactive); in the assay on UACC-257, 68.5 µM (inactive). Moreover, the GI50 in the assay with A498 is > 100 µM (inactive).
Consider `CC(=O)NC(C)(C)C1CC=C(C)CC1` (stereo not drawn), for which the GI50 in the assay on IGROV-1, with PC-3, in the assay with SR, with M14, with K562 and in the assay on BT-549 was > 100 µM (inactive) each time. Besides, the GI50 in the assay on SF-268, with HCT-116, in the assay on SW-620, in the assay on SN12C, in the assay on SK-OV-3 and in the assay on UACC-257 was > 100 µM (inactive) throughout. In addition, the GI50 with A498 is > 100 µM (inactive).
Consider `CC1(C)N=C(C2CCCN2C(=O)OCc2ccccc2)OC1=O` (stereo not drawn), for which the GI50 in the assay on IGROV-1, in the assay on SK-MEL-2, in the assay with PC-3, with M14, with NCI-H522 and with K562 was > 100 µM (inactive) in each case. Further, the GI50 with BT-549, in the assay on SF-268, with HCT-116, in the assay with SW-620, in the assay on SN12C and in the assay with SK-OV-3 was > 100 µM (inactive) each time. Also, the GI50 with UACC-257 and in the assay with A498 was > 100 µM (inactive) each time.
On to `[N-]=[N+]=NCc1cccc(Nc2cc(=O)[nH]c(=O)[nH]2)c1`, for which the GI50 in the assay with IGROV-1 was > 100 µM (inactive); in the assay with T47D it was 51.2 µM (inactive); in the assay with SK-MEL-2, > 100 µM (inactive); in the assay on SR, > 100 µM (inactive); in the assay on M14, > 100 µM (inactive); with NCI-H522, > 100 µM (inactive). For the same compound, the GI50 is > 100 µM (inactive) in the assay with K562; > 100 µM (inactive) in the assay on BT-549; > 100 µM (inactive) in the assay on SF-268; > 100 µM (inactive) in the assay on HCT-116; > 100 µM (inactive) with SW-620; 74 µM (inactive) in the assay on HOP-92. Further, the GI50 with SN12C is > 100 µM (inactive); in the assay on SK-OV-3 it was > 100 µM (inactive); with UACC-257 it was 30.8 µM (inactive); in the assay with A498, > 100 µM (inactive).
As to `Cc1cc(NC2=NCCO2)c2c(c1C)CCCC2`, the GI50 with IGROV-1 was 21.8 µM (inactive); in the assay on T47D, 13.6 µM (inactive); in the assay on SR, 18.5 µM (inactive); with M14, 11.1 µM (inactive); in the assay with SF-268, 18.9 µM (inactive); with HCT-116, 15.2 µM (inactive). The GI50 was 27.1 µM (inactive) with SW-620; 0.906 µM (active) in the assay with HOP-92; 22.2 µM (inactive) with SN12C; 20.4 µM (inactive) in the assay on SK-OV-3; 9.33 µM (inactive) in the assay with UACC-257; 13.6 µM (inactive) in the assay on A498.
Regarding `[N-]=[N+]=NCc1nc(N)c2c3c(sc2n1)CCCC3`, the GI50 in the assay on IGROV-1 is 1.2 µM (inactive); in the assay on T47D it was 6.85 µM (inactive); in the assay on SK-MEL-2, 9.38 µM (inactive); in the assay on PC-3 it was 2.04 µM (inactive); in the assay with SR, 4.99 µM (inactive); with M14 it was 3.46 µM (inactive). Moreover, the GI50 was 4.22 µM (inactive) with K562; 2.32 µM (inactive) in the assay on SF-268; 2.52 µM (inactive) in the assay with HCT-116; 6.85 µM (inactive) with SW-620; 0.402 µM (active) with HOP-92; 2.74 µM (inactive) with SN12C. Besides, the GI50 in the assay with SK-OV-3 was 11.6 µM (inactive); in the assay with UACC-257 it was 4.22 µM (inactive); in the assay with A498 it was 10.9 µM (inactive).
Take `COc1cc(/C=C2\CCC(C)C3=C2N=c2s/c(=C/c4ccc(Cl)cc4)c(=O)n2C3c2cc(OC)c(OC)c(OC)c2)cc(OC)c1OC` (stereo not drawn): the GI50 is 20.5 µM (inactive) in the assay on IGROV-1; > 100 µM (inactive) in the assay on SK-MEL-2; > 100 µM (inactive) with PC-3; > 100 µM (inactive) in the assay on SR; > 100 µM (inactive) with M14; > 100 µM (inactive) in the assay on K562. Further, the GI50 in the assay with SF-268, with HCT-116, with SW-620, in the assay on HOP-92, in the assay with SN12C and in the assay with SK-OV-3 was > 100 µM (inactive) throughout. The GI50 in the assay on UACC-257 and in the assay on A498 was > 100 µM (inactive) each time.
On to `CC(C)C1=CC23CCC4C(C)(C(=O)O)CCCC4(C)C2CC1C1C(=O)N(c2ccc(Cc4ccc(N5C(=O)C6C7CC8C9(C)CCCC(C)(C(=O)O)C9CCC8(C=C7C(C)C)C6C5=O)cc4)cc2)C(=O)C13` (stereo not drawn), for which the GI50 with T47D is 18.1 µM (inactive); in the assay with SK-MEL-2, 12 µM (inactive); in the assay on PC-3, 3.78 µM (inactive); in the assay with SR it was 5.75 µM (inactive); with M14, 9.44 µM (inactive); in the assay with NCI-H522, 8.18 µM (inactive). Also, the GI50 in the assay on K562 is 7.87 µM (inactive); with SF-268, 8.81 µM (inactive); in the assay with HCT-116, 4.39 µM (inactive); in the assay on SW-620 it was 11.4 µM (inactive); in the assay on HOP-92, 20.1 µM (inactive); in the assay on SN12C, 10.1 µM (inactive). Further, the GI50 in the assay with A498 was 8.51 µM (inactive).
For `O=c1cccc2n1C[C@H]1CNC[C@H]2C1`, the GI50 in the assay on SK-MEL-2, in the assay on PC-3, in the assay on M14, in the assay on K562, with BT-549 and in the assay on SF-268 was > 100 µM (inactive) throughout. Further, the GI50 in the assay with HCT-116, in the assay with SW-620, with HOP-92, in the assay on SN12C, in the assay on SK-OV-3 and in the assay with UACC-257 was > 100 µM (inactive) in each case. The GI50 in the assay on A498 was > 100 µM (inactive).
